This note sets out measurements from US20230123856A1, “5-FLUORONICOTINAMIDE DERIVATIVES AND USES THEREOF” (Tenaya Therapeutics, Inc., priority 2019, published 2023).

The term IC50 denotes the concentration that inhibits the measured activity by half.

For the experiment, the target named is T1, HDAC6 (Homo sapiens, UniProt Q9UBN7).
T1 sequence (Q9UBN7 1-1215): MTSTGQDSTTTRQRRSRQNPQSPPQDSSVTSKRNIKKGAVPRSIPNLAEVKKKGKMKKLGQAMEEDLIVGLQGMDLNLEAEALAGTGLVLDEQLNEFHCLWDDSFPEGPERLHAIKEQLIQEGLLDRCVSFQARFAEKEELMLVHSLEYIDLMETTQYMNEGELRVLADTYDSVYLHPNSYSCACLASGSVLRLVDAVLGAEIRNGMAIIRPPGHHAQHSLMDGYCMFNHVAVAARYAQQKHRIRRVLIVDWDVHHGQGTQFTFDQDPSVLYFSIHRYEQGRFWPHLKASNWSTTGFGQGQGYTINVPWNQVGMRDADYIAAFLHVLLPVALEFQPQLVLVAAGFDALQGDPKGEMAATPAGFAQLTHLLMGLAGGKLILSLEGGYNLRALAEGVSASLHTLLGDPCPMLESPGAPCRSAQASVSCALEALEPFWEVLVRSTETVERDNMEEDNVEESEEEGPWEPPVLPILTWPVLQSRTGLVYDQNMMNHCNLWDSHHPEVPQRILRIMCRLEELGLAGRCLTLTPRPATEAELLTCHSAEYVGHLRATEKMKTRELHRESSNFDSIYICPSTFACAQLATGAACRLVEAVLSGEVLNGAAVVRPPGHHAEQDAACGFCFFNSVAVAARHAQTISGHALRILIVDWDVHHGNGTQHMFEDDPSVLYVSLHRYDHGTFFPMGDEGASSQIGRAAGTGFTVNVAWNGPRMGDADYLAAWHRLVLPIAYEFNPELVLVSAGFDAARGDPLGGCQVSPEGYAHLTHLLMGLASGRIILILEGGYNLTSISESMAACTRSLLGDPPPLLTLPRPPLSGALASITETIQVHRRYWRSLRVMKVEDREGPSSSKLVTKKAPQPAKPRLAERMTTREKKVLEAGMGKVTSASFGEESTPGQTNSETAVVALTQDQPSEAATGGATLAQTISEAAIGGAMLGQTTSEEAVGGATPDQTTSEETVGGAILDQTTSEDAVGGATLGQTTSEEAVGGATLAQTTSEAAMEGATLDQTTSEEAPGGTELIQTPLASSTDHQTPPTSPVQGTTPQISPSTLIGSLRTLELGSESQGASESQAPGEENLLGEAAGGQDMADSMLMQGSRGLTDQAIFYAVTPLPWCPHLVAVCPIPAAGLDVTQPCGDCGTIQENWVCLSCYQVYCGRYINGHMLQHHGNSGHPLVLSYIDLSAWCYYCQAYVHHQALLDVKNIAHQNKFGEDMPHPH
In words: Biochemical luminescent HDAC-Glo I/II assay, HDAC6. The conditions noted are these: recombinant HDAC6 protein, HDAC-Glo I/II luminescent substrate.
As for `O=C(NO)c1cnc(NC2(c3ccccn3)CCC2)c(F)c1` [Compound I-37], the IC50 was found to be 2.18 nM. In the case of `CO[C@H]1COC[C@@H]1Nc1ncc(C(=O)NO)cc1F` [Compound I-38], the IC50 was determined as 5.67 nM. Consider `COCC1(Nc2ncc(C(=O)NO)cc2F)CC(F)(F)C1` [Compound I-39], for which the IC50 turned out to be 1.12 nM. In the case of `CCC1(Nc2ncc(C(=O)NO)cc2F)COC1` [Compound I-40], the IC50 was 3.36 nM. With `O=C(NO)c1cnc(NC2(C3CC3)CC2)c(F)c1` [Compound I-41], the IC50 amounted to 3.97 nM. For `CN1CC[C@H](Nc2ncc(C(=O)NO)cc2F)C1=O` [Compound I-42A] the value was 34.3 nM; for `CN1CC[C@@H](Nc2ncc(C(=O)NO)cc2F)C1=O` [Compound I-42B], 41.7 nM; for `O=C(NO)c1cnc(N[C@H]2CCNC2=O)c(F)c1` [Compound I-43A], 51.1 nM. As to `O=C(NO)c1cnc(N[C@@H]2CCNC2=O)c(F)c1` [Compound I-43B], the IC50 amounted to 25.7 nM. On to `COCCC1(Nc2ncc(C(=O)NO)cc2F)CC1` [Compound I-44], for which the IC50 is 4.71 nM.

For `O=C(NO)c1cnc(NC2(c3ncccc3F)CC2)c(F)c1` [Compound I-45, 5-fluoro-6-{[1-(3-fluoropyridin-2-yl)cyclopropyl]amino}-N-hydroxypyridine-3-carboxamide], the IC50 stood at 6.51 nM. As to `O=C(NO)c1cnc(NC2(c3ncccn3)CC2)c(F)c1` [Compound I-46, 5-fluoro-N-hydroxy-6-((1-(pyrimidin-2-yl)cyclopropyl)amino)nicotinamide], the IC50 was found to be 29.2 nM. Regarding `CN1Cc2ccccc2N(Cc2ncc(C(=O)NO)cc2F)C1=O` [Compound I-47], the IC50 is 4.36 nM. For `O=C(NO)c1cnc(Cn2c3c(c4ccccc42)S(=O)(=O)CC3)c(F)c1` [Compound I-48] the value was 2.27 nM; for `O=C(NO)c1cnc(Cn2c(C(F)(F)F)nc3ccccc32)c(F)c1` [Compound I-49], 5.11 nM; for `Cc1cc2cccnc2n1Cc1ncc(C(=O)NO)cc1F` [Compound I-50], 2.98 nM. `Cc1c(C)n(Cc2ncc(C(=O)NO)cc2F)c2ncccc12` [Compound I-51]: the IC50 is 1.94 nM. With `COC(=O)N(Cc1ncc(C(=O)NO)cc1F)c1ncccc1O` [Compound I-52], the IC50 is 4.29 nM. For `Cc1nc2cccnc2n1Cc1ncc(C(=O)NO)cc1F` [Compound I-53], the IC50 is 8.69 nM. In the case of `O=C(NO)c1cnc(Cn2c(N3CCOCC3)nc3ccccc32)c(F)c1` [Compound I-54], the IC50 worked out at 80.3 nM. Take `O=C(NO)c1cnc(Cn2ccc3cc(C(=O)NC4CC4)cnc32)c(F)c1` [Compound I-55, N-cyclopropyl-1-((3-fluoro-5-(hydroxycarbamoyl)pyridin-2-yl)methyl)-1H-pyrrolo[2,3-b]pyridine-5-carboxamide]: the IC50 is 3.88 nM. Take `O=C(NO)c1cnc(NC2(c3ccccn3)COC2)c(F)c1` [Compound I-56]: the IC50 was 7.67 nM.

As to `O=C(NO)c1cnc(OC2(c3ccccn3)COC2)c(F)c1` [III-2, 5-fluoro-N-hydroxy-6-{[3-(pyridin-2-yl)oxetan-3-yl]oxy}pyridine-3-carboxamide], the concentration for half-maximal inhibition (IC50) worked out at 14.6 nM.
